Activity calls are given as the source filed them. The rule behind the calls is not given here.

The data set relates to CCRIS mutagenicity, Ames/micronucleus/aberration tests. In words: CCRIS mutagenicity studies.
Where [1] appears, read: Test System: AMES SALMONELLA TYPHIMURIUM, Strain/Indicator: TA98, Metabolic Activation: RAT, LIVER, S-9, AROCLOR 1254, Method: STANDARD PLATE.

With `C[C@@H](CN=[N+]=[N-])c1ccccc1`, the mutagenic call is, setting by setting: (Test System: AMES SALMONELLA TYPHIMURIUM, Strain/Indicator: TA100, Metabolic Activation: NONE, Method: PREINCUBATION) “inactive; negative”; (Test System: AMES SALMONELLA TYPHIMURIUM, Strain/Indicator: TA100, Metabolic Activation: RAT, LIVER, S-9, PCB, Method: PREINCUBATION) “active; positive”.
As for `CCNC(=O)CNC(=O)C=[N+]=[N-]`, for the setting “Test System: UDS RODENT CELLS, Strain/Indicator: THY INCORP (NON-S-PHASE), Metabolic Activation: NONE, Method: AUTORADIOGRAPHY”, the mutagenic call is “active; positive”.
In the case of `Cc1c(C)c2c(nc(N)n2C)c2nccnc12`, the mutagenic call under setting [1] is “active; positive”.
As to `O=NN1CCCC1`, the mutagenic call by setting is: (Test System: AMES SALMONELLA TYPHIMURIUM, Strain/Indicator: TA97, Metabolic Activation: NONE, Method: STANDARD PLATE) “inactive; negative”; (Test System: AMES SALMONELLA TYPHIMURIUM, Strain/Indicator: TA97, Metabolic Activation: RAT, LIVER, S-9, AROCLOR 1254, Method: STANDARD PLATE) “inactive; negative”; (Test System: AMES SALMONELLA TYPHIMURIUM, Strain/Indicator: TA98, Metabolic Activation: NONE, Method: STANDARD PLATE) “inactive; negative”; under setting [1], “inactive; negative”; (Test System: AMES SALMONELLA TYPHIMURIUM, Strain/Indicator: TA100, Metabolic Activation: HAMSTER, LIVER, S-9, Method: PREINCUBATION) “active; positive”; (Test System: AMES SALMONELLA TYPHIMURIUM, Strain/Indicator: TA100, Metabolic Activation: HUMAN, LIVER, S-9, Method: PREINCUBATION) “active; positive”. Also, the mutagenic call reads like this: (Test System: AMES SALMONELLA TYPHIMURIUM, Strain/Indicator: TA100, Metabolic Activation: NONE, Method: STANDARD PLATE) “inactive; negative”; (Test System: AMES SALMONELLA TYPHIMURIUM, Strain/Indicator: TA100, Metabolic Activation: PIG, LIVER, S-9, Method: PREINCUBATION) “active; positive”; (Test System: AMES SALMONELLA TYPHIMURIUM, Strain/Indicator: TA100, Metabolic Activation: RABBIT, LIVER, S-9, Method: STANDARD PLATE) “inactive; negative”; (Test System: AMES SALMONELLA TYPHIMURIUM, Strain/Indicator: TA100, Metabolic Activation: RABBIT, LUNG, S-9, Method: STANDARD PLATE) “inactive; negative rabbit, lung, s-9”; (Test System: AMES SALMONELLA TYPHIMURIUM, Strain/Indicator: TA100, Metabolic Activation: RABBIT, NASAL, S-9, Method: STANDARD PLATE) “active; positive”; (Test System: AMES SALMONELLA TYPHIMURIUM, Strain/Indicator: TA100, Metabolic Activation: RAT, ESOPHAGUS, S-9, Method: PREINCUBATION) “active; positive”. Besides, the mutagenic call is “active; positive” (Test System: AMES SALMONELLA TYPHIMURIUM, Strain/Indicator: TA100, Metabolic Activation: RAT, FORESTOMACH, S-9, Method: PREINCUBATION); “active; positive” (Test System: AMES SALMONELLA TYPHIMURIUM, Strain/Indicator: TA100, Metabolic Activation: RAT, GLANDULAR STOMACH, S-9, Method: PREINCUBATION); “active; positive” (Test System: AMES SALMONELLA TYPHIMURIUM, Strain/Indicator: TA100, Metabolic Activation: RAT, LIVER, S-9, AROCLOR 1254, Method: PREINCUBATION); “inactive; negative” (Test System: AMES SALMONELLA TYPHIMURIUM, Strain/Indicator: TA100, Metabolic Activation: RAT, LIVER, S-9, AROCLOR 1254, Method: STANDARD PLATE); “inactive; negative” (Test System: AMES SALMONELLA TYPHIMURIUM, Strain/Indicator: TA100, Metabolic Activation: RAT, LIVER, S-9, Method: PREINCUBATION); “inactive; negative” (Test System: AMES SALMONELLA TYPHIMURIUM, Strain/Indicator: TA100, Metabolic Activation: RAT, LIVER, S-9, Method: STANDARD PLATE). Moreover, the mutagenic call was “inactive; negative” (Test System: AMES SALMONELLA TYPHIMURIUM, Strain/Indicator: TA100, Metabolic Activation: RAT, LUNG, S-9, Method: STANDARD PLATE); “active; positive” (Test System: AMES SALMONELLA TYPHIMURIUM, Strain/Indicator: TA100, Metabolic Activation: RAT, NASAL, S-9, Method: STANDARD PLATE); “active; positive” (Test System: AMES SALMONELLA TYPHIMURIUM, Strain/Indicator: TA102, Metabolic Activation: RAT, LIVER, S-9, AROCLOR 1254, Method: PREINCUBATION); “active; positive” (Test System: AMES SALMONELLA TYPHIMURIUM, Strain/Indicator: TA104, Metabolic Activation: RAT, LIVER, S-9, AROCLOR 1254, Method: PREINCUBATION); “inactive; negative” (Test System: AMES SALMONELLA TYPHIMURIUM, Strain/Indicator: TA1530, Metabolic Activation: RAT LIVER, CYTOSOL, ISONIAZID, Method: PREINCUBATION); “active; positive” (Test System: AMES SALMONELLA TYPHIMURIUM, Strain/Indicator: TA1530, Metabolic Activation: RAT LIVER, MICROSOMES, ISONIAZID, Method: PREINCUBATION). The mutagenic call was “active; positive” (Test System: AMES SALMONELLA TYPHIMURIUM, Strain/Indicator: TA1530, Metabolic Activation: RAT, LIVER, S-9, Method: STANDARD PLATE); “active; positive” (Test System: AMES SALMONELLA TYPHIMURIUM, Strain/Indicator: TA1535, Metabolic Activation: RAT, LIVER, MICROSOMES, Method: PREINCUBATION); “inactive; negative” (Test System: AMES SALMONELLA TYPHIMURIUM, Strain/Indicator: TA1535, Metabolic Activation: RAT, LIVER, S-9, 3-METHYLCHOLANTHRENE, Method: STANDARD PLATE); “active; positive” (Test System: AMES SALMONELLA TYPHIMURIUM, Strain/Indicator: TA1535, Metabolic Activation: RAT, LIVER, S-9, AROCLOR 1254, Method: PREINCUBATION); “active; positive” (Test System: AMES SALMONELLA TYPHIMURIUM, Strain/Indicator: TA1535, Metabolic Activation: RAT, LIVER, S-9, ETHANOL, Method: STANDARD PLATE); “active; positive” (Test System: AMES SALMONELLA TYPHIMURIUM, Strain/Indicator: TA1535, Metabolic Activation: RAT, LIVER, S-9, PHENOBARBITAL, Method: STANDARD PLATE). Further, the mutagenic call (Test System: AMES SALMONELLA TYPHIMURIUM, Strain/Indicator: TA1535, Metabolic Activation: RAT, LIVER, S-9, PHENOBARBITONE AND BETA-NAPHTHOFLAVONE, Method: PREINCUBATION) is “active; positive”; the mutagenic call (Test System: AMES SALMONELLA TYPHIMURIUM, Strain/Indicator: TA1535, Metabolic Activation: RAT, LIVER, S-9, PHENOBARBITONE AND BETA-NAPHTHOFLAVONE, Method: STANDARD PLATE) is “active; positive”; the mutagenic call (Test System: AMES SALMONELLA TYPHIMURIUM, Strain/Indicator: TA1535, Metabolic Activation: RAT, LIVER, S-9, PYRAZOLE, Method: PREINCUBATION) was “active; positive”; the mutagenic call (Test System: AMES SALMONELLA TYPHIMURIUM, Strain/Indicator: TA1535, Metabolic Activation: RAT, LIVER, S-9, PYRAZOLE, Method: STANDARD PLATE) was “active; positive”; the mutagenic call (Test System: AMES SALMONELLA TYPHIMURIUM, Strain/Indicator: TA1975, Metabolic Activation: RAT, LIVER, S-9, AROCLOR 1254, Method: PREINCUBATION) is “active; positive”; the mutagenic call (Test System: AMES SALMONELLA TYPHIMURIUM, Strain/Indicator: TA2410, Metabolic Activation: NONE, Method: HOST-MEDIATED) is “inactive; negative”. Also, the mutagenic call is, setting by setting: (Test System: AMES SALMONELLA TYPHIMURIUM, Strain/Indicator: TA2678, Metabolic Activation: NONE, Method: HOST-MEDIATED) “inactive; negative”; (Test System: Ames Salmonella typhimurium, Strain/Indicator: YG7108, Metabolic Activation: Rat, Liver, S-9, Phenobarbital/beta-naphtoflavone, Method: Standard plate) “active; positive”; (Test System: Ames Salmonella typhimurium, Strain/Indicator: YG7108pin3ERb5, Metabolic Activation: None, Method: Standard plate) “active; positive”; (Test System: CHINESE HAMSTER OVARY, Strain/Indicator: CHO-K1-BH4 (HGPRT), Metabolic Activation: RAT, LIVER, S-9, AROCLOR, Method: SUSPENSION/PLATE) “active; positive”; (Test System: CHINESE HAMSTER V-79, Strain/Indicator: V-79/8-AZAGUANINE, Metabolic Activation: RAT, LIVER, S-15, PHENOBARBITAL, Method: STANDARD PLATE) “active; positive”; (Test System: UDS RODENT HEPATOCYTES, Strain/Indicator: THY INCORP (NON-S-PHASE), Method: AUTORADIOGRAPHY) “active; positive”.

Source of the values: PubChem BioAssay AID1259407 (Chemical Carcinogenesis Research Information System (CCRIS), 2018).
